Assay results taken from patent US20170143701A1, “CARBOHYDRATE METABOLISM-AMELIORATING AGENT” (SUNTORY HOLDINGS LIMITED, priority 2014, published 2017).

System: C57/BL6J mice
Test: In vivo plasma GLP-1 level-increasing action: plasma active GLP-1 level (ELISA) after oral administration
Settings: 10 mg/kg oral; for Significant difference (p < 0.05) vs control group, plasma active GLP-1 level: 30 minutes, Student's t-test; for Plasma active GLP-1 level (relative value to control group as 100), average value: blood 30 minutes after, 0.5% CMC-Na group = 100
Experimental: Seven-week-old male C57/BL6J mice were purchased from CLEA Japan, Inc. for use, and they were subjected to an experiment after 1 week of a habituation period.
After the habituation period, the mice were subjected to 5.5 hours of food deprivation and 2 hours of water deprivation. Thereafter, a cyclic dipeptide dissolved or suspended in a 0.5% CMC-Na aqueous solution in 10 mg/kg was orally administered to each mouse forcibly. After 30 minutes, the blood was collected from the abdominal vena cava under anesthesia, and 1 μL of heparin sodium and 1 μL of 10 mM Sitagliptin phosphate were added to each collected blood, which was then subjected to centrifugation at 8000 rpm for 10 minutes to recover the plasma, and the plasma active GLP-1 level was measured by using the ELISA kit. In the analysis, the active GLP-1 level for a group administered with 0.5% CMC-Na aqueous solution was defined as 100, and relative values thereto were used.

Row | SMILES | Significant difference (p < 0.05) vs control group, plasma active GLP-1 level (Table 14, Experiment 9) | Plasma active GLP-1 level (relative value to control group as 100), average value (Table 14, Experiment 9) | Significant difference (p < 0.05) vs control group, plasma active GLP-1 level (Table 15, Experiment 10) | Plasma active GLP-1 level (relative value to control group as 100), average value (Table 15, Experiment 10)
1 | CCC(C)C1NC(=O)C(C(C)C)NC1=O (stereo not drawn) [compound 138, Cyclo(Ile-Val)] | No | 96 | – | –
2 | CC(C)C1NC(=O)C(C(C)O)NC1=O (stereo not drawn) [compound 139, cyclo-valyl-threonine] | Yes | 120 | – | –
3 | CC(C)C1NC(=O)C(CC(=O)O)NC1=O (stereo not drawn) [compound 140, cyclo-valyl-aspartic acid] | Yes | 120 | – | –
4 | CC(C)[C@@H]1NC(=O)[C@H](CC(N)=O)NC1=O [compound 141, cyclo-asparaginyl-valine] | – | – | Yes | 191
5 | CC(C)CC1NC(=O)C(CCC(=O)O)NC1=O (stereo not drawn) [compound 145, cyclo-glutamyl-leucine] | – | – | Yes | 236
6 | CC(C)CC1NC(=O)C(CC(=O)O)NC1=O (stereo not drawn) [compound 146, cyclo-aspartyl-leucine] | – | – | Yes | 259
7 | CC[C@H](C)[C@@H]1NC(=O)[C@H](Cc2cnc[nH]2)NC1=O [compound 148, cyclo-isoleucyl-histidine] | – | – | Yes | 259
8 | CC[C@H](C)[C@@H]1NC(=O)[C@H](CCCCN)NC1=O [compound 150, cyclo-isoleucyl-lysine] | – | – | Yes | 282
9 | CC(C)CC1NC(=O)C(CO)NC1=O (stereo not drawn) [compound 151, cyclo-seryl-leucine] | – | – | Yes | 259
10 | CC(C)CC1NC(=O)C(CCC(N)=O)NC1=O (stereo not drawn) [compound 152, cyclo-glutaminyl-leucine] | – | – | Yes | 282
11 | CC(C)[C@@H]1NC(=O)CNC1=O [compound 155, Cyclo(Val-Gly)] | – | – | No | 55
12 | CCC(C)C1NC(=O)CNC1=O (stereo not drawn) [compound 156, Cyclo(Ile-Gly)] | – | – | No | 145
13 | CSCCC1NC(=O)C(C(C)C)NC1=O (stereo not drawn) [compound 160, cyclo-methionyl-valine] | – | – | Yes | 304
14 | CC[C@H](C)[C@@H]1NC(=O)[C@H]([C@H](C)O)NC1=O [compound 161, cyclo-isoleucyl-threonine] | – | – | Yes | 282
15 | CC[C@H](C)[C@@H]1NC(=O)[C@H](CC(=O)O)NC1=O [compound 162, cyclo-isoleucyl-aspartic acid] | – | – | Yes | 259
16 | CC[C@H](C)C1NC(=O)[C@H](CC(N)=O)NC1=O (stereo partly drawn) [compound 163, cyclo-asparaginyl-isoleucine] | – | – | Yes | 327
17 | CSCC[C@@H]1NC(=O)[C@H]([C@H](C)O)NC1=O [compound 169, cyclo-methionyl-threonine] | – | – | Yes | 282
18 | CC1NC(=O)C(CS)NC1=O (stereo not drawn) [compound 177, cyclo-alanyl-cysteine] | – | – | Yes | 282
19 | O=C1CNC(=O)C(CS)N1 (stereo not drawn) [compound 178, cyclo-glycyl-cysteine] | – | – | Yes | 282
20 | O=C(O)CCC1NC(=O)C(CS)NC1=O (stereo not drawn) [compound 179, cyclo-glutamyl-cysteine] | – | – | Yes | 304
21 | O=C1N[C@@H](CS)C(=O)N[C@H]1CO [compound 180, cyclo-seryl-cysteine] | – | – | Yes | 259
